36 molecules from patent US20050009706A1, “Alpha-cyanoacrylates” (priority 2001, published 2005) can be followed below.

SMILES strings stand for the structures.

Series [1] relates to Setaria faberii. The series can be described thus: greenhouse experiment, pre-emergence treatment. Type of series: in vivo. From the text: (§1) The seeds of the test plants were sown separately for each species. For the pre-emergence treatment, directly after sowing the active compounds, which had been suspended or emulsified in water, were applied by means of finely distributing nozzles. The containers were irrigated gently to promote germination and growth and subsequently covered with transparent plastic hoods until the plant had rooted. This cover caused uniform germination of the test plants, unless this was adversely affected by reactive compounds. The application rate for a pre-emergence treatment was 0.5 or 1.0 kg of a.s. (active substance)/ha. Depending on the species, the plants were kept at 10-25° C. or 20-35° C. The test period extended over 2 to 4 weeks. During this time, the plants were tended, and their response to the individual treatments was evaluated. Evaluation was carried out using a scale from 0 to 100. 100 means no emergence of the plants, or complete destruction of at least the above-ground parts, and 0 means no damage, or normal course of growth. The plants used in the greenhouse experiments were of the following species: [table]

In the next series the test system is Pharbitis purpurea. The series can be described thus: greenhouse experiment, post-emergence treatment. Type of series: in vivo. An excerpt:
(§2) The seeds of the test plants were sown separately for each species. For the post-emergence treatment, the test plants were first grown to a height of from 3 to 15 cm, depending on the plant habit, and only then treated with the active compounds which had been suspended or emulsified in water. The test plants were for this purpose either sown directly and grown in the same containers, or they were first grown separately as seedlings and transplanted into the test containers a few days prior to treatment. The application rate for the post-emergence treatment was 0.5 or 1.0 kg of a.s. (active substance)/ha. Depending on the species, the plants were kept at 10-25° C. or 20-35° C. The test period extended over 2 to 4 weeks. During this time, the plants were tended, and their response to the individual treatments was evaluated. Evaluation was carried out using a scale from 0 to 100. 100 means no emergence of the plants, or complete destruction of at least the above-ground parts, and 0 means no damage, or normal course of growth. The plants used in the greenhouse experiments were of the following species: [table]

In another series the test system is Digitaria sanguinalis. The series can be described thus: greenhouse experiment, pre-emergence treatment. It counts as in vivo.
From the text: as §1

The subject of series [2] is Setaria faberii. Description: greenhouse experiment, post-emergence treatment. Type of series: in vivo. The conditions noted are these: 1.0 kg/ha.
From the text: as §2

Another series has as its system Amaranthus retroflexus. Description: greenhouse experiment, pre-emergence treatment. Type of series: in vivo. The conditions noted are these: 1.0 kg/ha.
From the text: as §1

Usually melting point stands for the temperature, or range, at which the solid turns liquid. Molecule `CCC(CC)/C(N)=C(\C#N)C(=O)OCC(F)(F)F` [Example 4.25] registered a melting point of 115 °C. For the same molecule, the “effect on the harmful plant Setaria faberii” value in the series with Setaria faberii [1] (1.0 kg/ha) is listed as “very good”.
`CCC(CC)/C(N)=C(\C#N)C(=O)OC(C)C(C)C` (stereo not drawn) [Example 4.7]: the “post-emergence activity against Pharbitis purpurea” value with Pharbitis purpurea (1.0 kg/ha) was “good”. In addition, the “effect on the harmful plant Setaria faberii” value in the series on Setaria faberii [1] (1.0 kg/ha) was “good”.
In the case of `CCC(CC)/C(N)=C(\C#N)C(=O)OC1CCCO1` (stereo not drawn) [Example 4.43], the melting point came to 180 °C.
`CCC(CC)/C(N)=C(\C#N)C(=O)OCC(C)(C)C` [Example 4.6]: in the series on Pharbitis purpurea (1.0 kg/ha), the “post-emergence activity against Pharbitis purpurea” value is reported as “very good”. Also, the “effect on the harmful plant Setaria faberii” value in the series on Setaria faberii [1] (1.0 kg/ha) is reported as “very good”.
For the molecule `C=CC(C)OC(=O)/C(C#N)=C(\N)C(CC)CC` (stereo not drawn) [Example 4.16], in the series on Setaria faberii [1] (1.0 kg/ha), the “effect on the harmful plant Setaria faberii” value was “very good”. Besides, in the series on Digitaria sanguinalis (1.0 kg/ha), the “effect on the harmful plant Digitaria sanguinalis” value is listed as “very good”.
For the molecule `CCC(CC)/C(N)=C(\C#N)C(=O)OC(C)C` [Example 4.1, Isopropyl (2Z)-3-amino-2-cyano-4-ethyl-2-hexenoate], the “post-emergence activity against Setaria faberii” value in the series with Setaria faberii [2] is on record as “very good”. Further, in the series on Pharbitis purpurea (1.0 kg/ha), the “post-emergence activity against Pharbitis purpurea” value is given as “very good”. Further, the “effect on the harmful plant Setaria faberii” value in the series on Setaria faberii [1] (1.0 kg/ha) is “very good”. In addition, in the series on Amaranthus retroflexus, the “effect on the harmful plant Amaranthus retroflexus” value is recorded as “very good”.
In the case of `CCC(CC)/C(N)=C(\C#N)C(=O)OCCC(F)(F)F` [Example 4.22], in the series with Setaria faberii [1] (0.5 kg/ha), the “effect on the harmful plant Setaria faberii” value is listed as “very good”. In the series with Digitaria sanguinalis (0.5 kg/ha), the “effect on the harmful plant Digitaria sanguinalis” value is “very good”.
In the case of `CCC(CC)/C(N)=C(\C#N)C(=O)OCC(C)C` [Example 4.5], in the series with Pharbitis purpurea (1.0 kg/ha), the “post-emergence activity against Pharbitis purpurea” value is “very good”. Further, the “effect on the harmful plant Setaria faberii” value in the series with Setaria faberii [1] (1.0 kg/ha) was “very good”. Besides, the “effect on the harmful plant Digitaria sanguinalis” value in the series on Digitaria sanguinalis (1.0 kg/ha) was “very good”.
`CCC(CC)/C(N)=C(\C#N)C(=O)NC(C)C` [Example 6.5]: the melting point was 164 °C.
In the case of `CCC(C)OC(=O)/C(C#N)=C(\N)C(CC)CC` (stereo not drawn) [Example 4.2], in the series with Pharbitis purpurea (0.5 kg/ha), the “post-emergence activity against Pharbitis purpurea” value was “very good”. Also, in the series on Setaria faberii [1] (0.5 kg/ha), the “effect on the harmful plant Setaria faberii” value was “very good”. Further, in the series on Digitaria sanguinalis (0.5 kg/ha), the “effect on the harmful plant Digitaria sanguinalis” value is given as “very good”.
In the case of `CCC(CC)/C(N)=C(\C#N)C(=O)O` [Example 4.42, (2Z)-3-Amino-2-cyano-4-ethyl-2-hexene acid], the melting point is 165 °C.
Turning to `CCCC(CC)/C(N)=C(\C#N)C(=O)OC(C)C` (stereo not drawn) [Example 5.3], in the series on Setaria faberii [1] (1.0 kg/ha), the “effect on the harmful plant Setaria faberii” value is on record as “very good”.
Still for that read-out and setting: the entry for `C#CCC(CC)/C(N)=C(\C#N)C(=O)OC(C)C` (stereo not drawn) [Example 5.10] is “very good”.
For `C#CCC(CC=C)/C(N)=C(\C#N)C(=O)OC(C)C` (stereo not drawn) [Example 5.11], the “post-emergence activity against Pharbitis purpurea” value in the series with Pharbitis purpurea (1.0 kg/ha) is “very good”.
Turning to `CCC(CC)/C(N)=C(\C#N)C(=O)SC(C)C` [Example 7.3], the melting point was 115 °C. Besides, the “post-emergence activity against Pharbitis purpurea” value with Pharbitis purpurea (1.0 kg/ha) is “very good”.
Molecule `CCC(CC)/C(N)=C(\C#N)C(=O)OC(C)(C)C` [Example 4.4] had a melting point of 150 °C. Moreover, in the series on Pharbitis purpurea (1.0 kg/ha), the “post-emergence activity against Pharbitis purpurea” value is “very good”. Moreover, in the series on Setaria faberii [1] (1.0 kg/ha), the “effect on the harmful plant Setaria faberii” value is recorded as “very good”.
Take `CCC(CC)/C(N)=C(\C#N)C(=O)NC` [Example 6.2]: the melting point stood at 146 °C.
The same measure, in the same setting: then `CCNC(=O)/C(C#N)=C(\N)C(CC)CC` [Example 6.29], with 124 °C.
For `CCC(CC)/C(N)=C(\C#N)C(=O)OC1COC1` [Example 4.14, 3-Oxetanyl (2Z)-3-amino-2-cyano-4-ethyl-2-hexenoat], in the series with Setaria faberii [1] (1.0 kg/ha), the “effect on the harmful plant Setaria faberii” value is “very good”.
On to `C=CCC(CC=C)/C(N)=C(\C#N)C(=O)OC(C)C` [Example 5.9], for which the “post-emergence activity against Pharbitis purpurea” value with Pharbitis purpurea (1.0 kg/ha) was “very good”.
As to `C=CCC(CC)/C(N)=C(\C#N)C(=O)OC(C)C` (stereo not drawn) [Example 5.7], in the series with Pharbitis purpurea (1.0 kg/ha), the “post-emergence activity against Pharbitis purpurea” value is “very good”. Further, the “effect on the harmful plant Setaria faberii” value in the series with Setaria faberii [1] (1.0 kg/ha) is given as “very good”. The “effect on the harmful plant Digitaria sanguinalis” value with Digitaria sanguinalis (1.0 kg/ha) is “very good”.
For the molecule `CCC(COC)/C(N)=C(\C#N)C(=O)OC(C)C` (stereo not drawn) [Example 5.2], the “post-emergence activity against Pharbitis purpurea” value with Pharbitis purpurea (1.0 kg/ha) was “very good”. Besides, in the series with Setaria faberii [1] (1.0 kg/ha), the “effect on the harmful plant Setaria faberii” value was “very good”.
With `CCC(CC)/C(N)=C(\C#N)C(=O)OC(C)CCl` (stereo not drawn) [Example 4.30], the “effect on the harmful plant Setaria faberii” value with Setaria faberii [1] (1.0 kg/ha) was “very good”. For the same molecule, the “effect on the harmful plant Digitaria sanguinalis” value with Digitaria sanguinalis (1.0 kg/ha) is listed as “very good”.
For `CCC(CC)/C(N)=C(\C#N)C(=O)OC1CCOC1` (stereo not drawn) [Example 4.38], the melting point was 105 to 110 °C.
As for `CCC(CC)/C(N)=C(\C#N)C(=O)OCCCl` [Example 4.23], in the series on Pharbitis purpurea (1.0 kg/ha), the “post-emergence activity against Pharbitis purpurea” value was “very good”. Moreover, in the series on Setaria faberii [1] (1.0 kg/ha), the “effect on the harmful plant Setaria faberii” value is given as “very good”.
Turning to `CCC(CC)/C(N)=C(\C#N)C(=O)N(C)C` [Example 6.21], the melting point was found to be 132 °C.
The same measure, in the same setting: then `CCC(CC)/C(N)=C(\C#N)C(N)=O` [Example 6.1], with 125 °C.
For `CCCC(CCC)/C(N)=C(\C#N)C(=O)OC(C)C` [Example 5.6], the “post-emergence activity against Pharbitis purpurea” value with Pharbitis purpurea (1.0 kg/ha) is on record as “very good”.
`CCC(CC)/C(N)=C(\C#N)C(=O)OCC1CC1` [Example 4.13]: the melting point was 125 °C. In the series with Setaria faberii [1] (1.0 kg/ha), the “effect on the harmful plant Setaria faberii” value is on record as “very good”. The “effect on the harmful plant Digitaria sanguinalis” value in the series on Digitaria sanguinalis (1.0 kg/ha) is on record as “very good”.
Consider `C#CC(C)OC(=O)/C(C#N)=C(\N)C(CC)CC` (stereo not drawn) [Example 4.20], for which the “post-emergence activity against Pharbitis purpurea” value in the series on Pharbitis purpurea (1.0 kg/ha) was “very good”. For the same molecule, the “effect on the harmful plant Setaria faberii” value in the series with Setaria faberii [1] (1.0 kg/ha) was “very good”. Moreover, the “effect on the harmful plant Digitaria sanguinalis” value in the series with Digitaria sanguinalis (1.0 kg/ha) is listed as “very good”.
With `CCC(CC)/C(N)=C(\C#N)C(=O)OCCCCl` [Example 4.29], in the series on Pharbitis purpurea (1.0 kg/ha), the “post-emergence activity against Pharbitis purpurea” value is reported as “very good”. Also, the “effect on the harmful plant Setaria faberii” value in the series on Setaria faberii [1] (1.0 kg/ha) is reported as “good”.
As for `CCC(CC)/C(N)=C(\C#N)C(=O)OC1CCCCC1` [Example 4.12], the melting point was found to be 154 °C.
In turn, `CCNC(=O)/C(C#N)=C(\N)C(CC)CC` [Example 6.3] came in with a melting point of 104 to 106 °C. Besides, the “post-emergence activity against Pharbitis purpurea” value with Pharbitis purpurea (1.0 kg/ha) is given as “very good”. In the series with Setaria faberii [1] (1.0 kg/ha), the “effect on the harmful plant Setaria faberii” value is on record as “very good”.
Molecule `CCC(CC)/C(N)=C(\C#N)C(=O)OC1CCCC1` [Example 4.11] had a melting point of 140 °C. The “post-emergence activity against Pharbitis purpurea” value in the series with Pharbitis purpurea (1.0 kg/ha) was “very good”. The “effect on the harmful plant Setaria faberii” value in the series with Setaria faberii [1] (1.0 kg/ha) was “very good”.
With `C#CCOC(=O)/C(C#N)=C(\N)C(CC)CC` [Example 4.19], the “effect on the harmful plant Setaria faberii” value in the series on Setaria faberii [1] (0.5 kg/ha) is given as “very good”. Also, in the series with Digitaria sanguinalis (0.5 kg/ha), the “effect on the harmful plant Digitaria sanguinalis” value was “very good”.
In the case of `CCC(CC)/C(N)=C(\C#N)C(=O)OC(C)C#N` (stereo not drawn) [Example 4.35], the “effect on the harmful plant Setaria faberii” value in the series with Setaria faberii [1] (1.0 kg/ha) is “good”.
